The results in this text go back to ChEMBL document CHEMBL1134175, “Nipecotic and iso-nipecotic amides as potent and selective somatostatin subtype-2 receptor agonists” (Bioorg Med Chem Lett, 2001).

Assay [1] addresses T1, Somatostatin receptor type 2 (Homo sapiens, UniProt P30874). Put plainly: Binding affinity to human somatostatin 2 receptor.
For assay [2], the target named is Somatostatin receptor type 5 (Homo sapiens, UniProt P35346). Put plainly: Binding affinity to hsst5 was determined.
In assay [3] the target is Somatostatin receptor type 3 (Homo sapiens, UniProt P32745). Put plainly: Binding affinity to hsst3 was determined.
A short description of assay [4]: Ratio of binding affinity of h5 to that of binding affinity of h2.
For assay [5], the target named is T1, Somatostatin receptor type 2. Put plainly: Binding affinity to Somatostatin receptor type 2 was determined.

Chain of Somatostatin receptor type 3 (P32745 whole entry): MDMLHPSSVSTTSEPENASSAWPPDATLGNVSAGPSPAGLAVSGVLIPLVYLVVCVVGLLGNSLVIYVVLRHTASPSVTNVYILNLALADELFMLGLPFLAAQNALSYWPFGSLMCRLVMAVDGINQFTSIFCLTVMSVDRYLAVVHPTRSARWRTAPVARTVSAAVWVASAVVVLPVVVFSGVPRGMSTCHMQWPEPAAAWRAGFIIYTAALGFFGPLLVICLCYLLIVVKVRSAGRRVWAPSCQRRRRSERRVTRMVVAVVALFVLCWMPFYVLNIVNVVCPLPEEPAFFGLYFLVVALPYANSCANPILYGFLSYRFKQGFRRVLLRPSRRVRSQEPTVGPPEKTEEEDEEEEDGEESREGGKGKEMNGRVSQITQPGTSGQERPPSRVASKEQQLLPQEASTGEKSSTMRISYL
T1 sequence (P30874 whole entry): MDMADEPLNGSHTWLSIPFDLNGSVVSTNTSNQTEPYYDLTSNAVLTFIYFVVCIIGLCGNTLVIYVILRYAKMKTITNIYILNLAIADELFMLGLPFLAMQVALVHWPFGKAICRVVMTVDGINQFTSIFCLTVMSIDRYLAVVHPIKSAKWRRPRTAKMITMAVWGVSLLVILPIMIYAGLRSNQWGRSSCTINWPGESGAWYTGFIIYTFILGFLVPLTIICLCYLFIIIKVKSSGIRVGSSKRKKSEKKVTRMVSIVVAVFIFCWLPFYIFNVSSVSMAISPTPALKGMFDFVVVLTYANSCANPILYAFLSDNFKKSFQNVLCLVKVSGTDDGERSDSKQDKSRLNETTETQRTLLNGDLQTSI
Chain of Somatostatin receptor type 5 (P35346 whole entry): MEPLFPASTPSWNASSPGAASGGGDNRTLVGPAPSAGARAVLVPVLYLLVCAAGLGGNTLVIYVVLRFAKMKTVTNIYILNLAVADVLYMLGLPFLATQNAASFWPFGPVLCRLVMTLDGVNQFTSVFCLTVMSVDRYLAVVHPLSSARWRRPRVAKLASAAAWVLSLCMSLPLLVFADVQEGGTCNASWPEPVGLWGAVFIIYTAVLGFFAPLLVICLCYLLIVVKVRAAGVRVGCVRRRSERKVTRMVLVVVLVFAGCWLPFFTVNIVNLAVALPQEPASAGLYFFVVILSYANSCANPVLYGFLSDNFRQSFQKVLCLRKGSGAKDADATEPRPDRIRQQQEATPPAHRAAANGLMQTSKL

In turn, `C[C@@H](c1c[nH]c2ccccc12)C(NC(=O)C1CCCN(C(=O)C(c2ccccc2)c2ccccc2)C1)C(=O)N[C@@H](CCCCN)C(=O)OC(C)(C)C` (stereo not given in full) yielded a Ki in assay [1] of 5 nM. As to `CC(C)C(=O)N1CCC(C(=O)NC(C(=O)N[C@@H](CCCCN)C(=O)OC(C)(C)C)[C@@H](C)c2c[nH]c3ccccc23)CC1` (stereo not given in full), the inhibition constant Ki amounted to 2860 nM in assay [2], 5250 nM in assay [3] and 15 nM in assay [5]. In addition, the Ratio in assay [4] was found to be 190. `C[C@@H](c1c[nH]c2ccccc12)C(NC(=O)C1CCCN(C(=O)C(O)(c2ccccc2)c2ccccc2)C1)C(=O)N[C@@H](CCCCN)C(=O)OC(C)(C)C` (stereo not given in full): the Ki in assay [1] is 2.8 nM.

The compound `C[C@@H](c1c[nH]c2ccccc12)C(NC(=O)C1CCCN(Cc2ccc3ccccc3c2)C1)C(=O)N[C@@H](CCCCN)C(=O)OC(C)(C)C` (stereo not given in full) had a Ki in assay [1] of 17 nM. On the same count and under the same terms, for `C[C@@H](c1c[nH]c2ccccc12)C(NC(=O)C1CCCN(C(c2ccccc2)c2ccccc2)C1)C(=O)N[C@@H](CCCCN)C(=O)OC(C)(C)C` (stereo not given in full) the value was 31 nM.

Turning to `C[C@@H](c1c[nH]c2ccccc12)C(NC(=O)C1CCCN(C(=O)c2ccccc2)C1)C(=O)N[C@@H](CCCCN)C(=O)OC(C)(C)C` (stereo not given in full), the affinity in assay [1], expressed as Ki, was 10 nM. The same measure, in the same setting: the same measure for `C[C@@H](c1c[nH]c2ccccc12)C(NC(=O)C1CCCN(S(=O)(=O)c2ccc(F)cc2)C1)C(=O)N[C@@H](CCCCN)C(=O)OC(C)(C)C` (stereo not given in full): 11 nM; for `C[C@@H](c1c[nH]c2ccccc12)C(NC(=O)C1CCCN(Cc2ccc3c(c2Cl)OCO3)C1)C(=O)N[C@@H](CCCCN)C(=O)OC(C)(C)C` (stereo not given in full): 12 nM; for `C[C@@H](c1c[nH]c2ccccc12)C(NC(=O)C1CCCN(C(=O)Cc2ccc3c(c2)OCO3)C1)C(=O)N[C@@H](CCCCN)C(=O)OC(C)(C)C` (stereo not given in full): 10 nM.

The compound `COc1cccc(CN2CCCC(C(=O)NC(C(=O)N[C@@H](CCCCN)C(=O)OC(C)(C)C)[C@@H](C)c3c[nH]c4ccccc34)C2)c1` (stereo not given in full) registered a Ki in assay [1] of 10 nM. That is a double-digit nanomolar value. For `CC(C)NC(=O)N1CCCC(C(=O)NC(C(=O)N[C@@H](CCCCN)C(=O)OC(C)(C)C)[C@@H](C)c2c[nH]c3ccccc23)C1` (stereo not given in full), the affinity in assay [1] corresponds to a Ki of 95 nM. The same measure, in the same setting: for `CC(C)S(=O)(=O)N1CCCC(C(=O)NC(C(=O)N[C@@H](CCCCN)C(=O)OC(C)(C)C)[C@@H](C)c2c[nH]c3ccccc23)C1` (stereo not given in full) the value was 35 nM. On to `C[C@@H](c1c[nH]c2ccccc12)C(NC(=O)C1CCCN(Cc2ccc(F)c(F)c2)C1)C(=O)N[C@@H](CCCCN)C(=O)OC(C)(C)C` (stereo not given in full), for which, in assay [1], affinity was put at a Ki of 2.9 nM. `COC(=O)c1cccc(CN2CCCC(C(=O)NC(C(=O)N[C@@H](CCCCN)C(=O)OC(C)(C)C)[C@@H](C)c3c[nH]c4ccccc34)C2)c1` (stereo not given in full) gave a Ki in assay [1] of 11 nM. In the case of `COC(=O)[C@H](Cc1ccccc1)NC(=O)N1CCCC(C(=O)NC(C(=O)N[C@@H](CCCCN)C(=O)OC(C)(C)C)[C@@H](C)c2c[nH]c3ccccc23)C1` (stereo not given in full), affinity in assay [1] was put at a Ki of 8.6 nM. Still for that read-out and setting: for `C[C@@H](c1c[nH]c2ccccc12)C(NC(=O)C1CCCN(C(=O)c2ccc3[nH]cnc3c2)C1)C(=O)N[C@@H](CCCCN)C(=O)OC(C)(C)C` (stereo not given in full) the value was 85 nM. On to `C[C@@H](c1c[nH]c2ccccc12)C(NC(=O)C1CCN(Cc2ccccc2)CC1)C(=O)N[C@@H](CCCCN)C(=O)OC(C)(C)C` (stereo not given in full), for which the Ki in assay [2] was found to be 333 nM; in assay [5], 2.5 nM. Moreover, the Ratio in assay [4] came out at 133. `CC(C)CC(=O)N1CCCC(C(=O)NC(C(=O)N[C@@H](CCCCN)C(=O)OC(C)(C)C)[C@@H](C)c2c[nH]c3ccccc23)C1` (stereo not given in full): the Ki in assay [1] is 23 nM.

In the case of `C[C@@H](c1c[nH]c2ccccc12)C(NC(=O)C1CCCN(Cc2cccc(F)c2F)C1)C(=O)N[C@@H](CCCCN)C(=O)OC(C)(C)C` (stereo not given in full), in assay [1], affinity was put at a Ki of 5.7 nM.

`COc1cccc(NC(=O)N2CCCC(C(=O)NC(C(=O)N[C@@H](CCCCN)C(=O)OC(C)(C)C)[C@@H](C)c3c[nH]c4ccccc34)C2)c1` (stereo not given in full) showed a Ki in assay [1] of 9 nM.

For the compound `CC(C)S(=O)(=O)N1CCC(C(=O)NC(C(=O)N[C@@H](CCCCN)C(=O)OC(C)(C)C)[C@@H](C)c2c[nH]c3ccccc23)CC1` (stereo not given in full), the Ki was greater than 10000 nM in assay [2], 3750 nM in assay [3] and 120 nM in assay [5]. Further, the Ratio in assay [4] is greater than 83. `C[C@@H](c1c[nH]c2ccccc12)C(NC(=O)C1CCCN(C(=O)Nc2ccccc2)C1)C(=O)N[C@@H](CCCCN)C(=O)OC(C)(C)C` (stereo not given in full) yielded a Ki in assay [1] of 11 nM.

Consider `C[C@@H](c1c[nH]c2ccccc12)C(NC(=O)C1CCCN(C(=O)c2cccnc2)C1)C(=O)N[C@@H](CCCCN)C(=O)OC(C)(C)C` (stereo not given in full), for which, in assay [1], the Ki is 85 nM. Compared with the last compound, the Ki is about 7.7-fold higher. Consider `C[C@@H](c1c[nH]c2ccccc12)C(NC(=O)C1CCCN(S(=O)(=O)c2cccs2)C1)C(=O)N[C@@H](CCCCN)C(=O)OC(C)(C)C` (stereo not given in full), for which the Ki in assay [1] worked out at 14 nM. On the same count and under the same terms, for `C[C@@H](c1c[nH]c2ccccc12)C(NC(=O)C1CCCN(C(=O)c2ccc3c(c2)OCO3)C1)C(=O)N[C@@H](CCCCN)C(=O)OC(C)(C)C` (stereo not given in full) the value was 36 nM. Same read-out and setting: for `CC(=O)Nc1cccc(C(=O)N2CCCC(C(=O)NC(C(=O)N[C@@H](CCCCN)C(=O)OC(C)(C)C)[C@@H](C)c3c[nH]c4ccccc34)C2)c1` (stereo not given in full) the value was 47 nM; for `C[C@@H](c1c[nH]c2ccccc12)C(NC(=O)C1CCCN(Cc2cccc(F)c2)C1)C(=O)N[C@@H](CCCCN)C(=O)OC(C)(C)C` (stereo not given in full), 5 nM; for `C[C@@H](c1c[nH]c2ccccc12)C(NC(=O)C1CCCN(Cc2ccccc2)C1)C(=O)N[C@@H](CCCCN)C(=O)OC(C)(C)C` (stereo not given in full), 4.6 nM. Still for that read-out and setting: the same measure for `C[C@@H](c1c[nH]c2ccccc12)C(NC(=O)C1CCCN(C(=O)Cc2cc(F)cc(F)c2)C1)C(=O)N[C@@H](CCCCN)C(=O)OC(C)(C)C` (stereo not given in full): 2.3 nM; for `C[C@@H](c1c[nH]c2ccccc12)C(NC(=O)C1CCCN(Cc2ccccc2-c2ccccc2)C1)C(=O)N[C@@H](CCCCN)C(=O)OC(C)(C)C` (stereo not given in full): 21 nM. On to `C[C@@H](c1c[nH]c2ccccc12)C(NC(=O)C1CCN(C(=O)c2ccccc2)CC1)C(=O)N[C@@H](CCCCN)C(=O)OC(C)(C)C` (stereo not given in full), for which the Ki in assay [2] was determined as 416 nM; in assay [3], 2660 nM; in assay [5], 0.5 nM. Further, the Ratio in assay [4] was determined as 832. In turn, `C[C@@H](c1c[nH]c2ccccc12)C(NC(=O)C1CCCNC1)C(=O)N[C@@H](CCCCN)C(=O)OC(C)(C)C` (stereo not given in full) showed a Ki in assay [1] of 178 nM. For `COc1ccc(S(=O)(=O)N2CCCC(C(=O)NC(C(=O)N[C@@H](CCCCN)C(=O)OC(C)(C)C)[C@@H](C)c3c[nH]c4ccccc34)C2)cc1OC` (stereo not given in full), the Ki in assay [1] worked out at 23 nM. As to `C[C@@H](c1c[nH]c2ccccc12)C(NC(=O)C1CCCN(C(=O)NC2CCCCC2)C1)C(=O)N[C@@H](CCCCN)C(=O)OC(C)(C)C` (stereo not given in full), the Ki in assay [1] worked out at 7.2 nM.

A word on the Ki: it is the dissociation constant of the complex between target and ligand, obtained from inhibition or displacement. A higher Ki goes with weaker binding.
